The nature of data set [1]: Plasma and brain concentrations of drugs at the end of the audiogenic seizure experiment (LC-MS). It is filed as in vivo, mouse. The settings on record: for concentration at 1 h: DBA/2J, mouse, oral; for concentration at 1 h / Brain concentration total: analyte VPA, oral gavage, mean ± SEM. As to the method: Briefly, blood was sampled from the vena cava caudalis with a syringe pre-filled with EDTA (ethylenediamine tetraacetic acid) as anticoagulant and centrifuged to yield plasma (for 10 minutes, at 4° C. and 5000 rpm (rounds per minute)). Brain was sampled and homogenized into one volume of cold phosphate buffer (pH 7.4). Following extraction with methanol, concentrations of the compound in plasma and brain were determined using liquid chromatography coupled to mass spectrometry.
(§1) Different combination efficacy experiments are performed. […] Each experiment consists of four treatment groups: • 1. Vehicle (10% Polyethylene glycol400 (PEG400)/90% methylcellulose (0.5% in water; MC0.5%)), 3 h before exposure to the auditory stimulus+vehicle, 1 h before exposure to the auditory stimulus; • 2. COMPOUND 1 (in 10% PEG400/90% MC0.5%), 3 h before exposure to the auditory stimulus+vehicle, 1 h before exposure to the auditory stimulus; • 3. Vehicle, 3 h before exposure to the auditory stimulus+AED (in 10% PEG400/90% MC0.5%), 1 h before exposure to the auditory stimulus; and • 4. COMPOUND 1 (in 10% PEG400/90% MC0.5%), 3 h before exposure to the auditory stimulus+AED (in 10% PEG400/90% MC0.5%), 1 h before exposure to the auditory stimulus.

Data set [2] relates to audiogenic seizure-sensitive juvenile DBA/2J mice. Nature of the data set: Audiogenic seizure-sensitive juvenile DBA/2J mouse model of generalized tonic-clonic seizures. In kind it is in vivo. Set-up: key: 0 none, 1 wild running, 2 clonus, 3 hind-limb tonic extension. The settings on record: oral gavage, mean ± SEM.
From the text: Audiogenic Seizure-Sensitive Juvenile DBA/2J Mouse Model of Generalized Tonic-Clonic Seizures
The inbred DBA/2J mouse strain carries an increased general susceptibility for acute generalized convulsive seizures induced by either pharmacological, electrical or, as juvenile, auditory stimuli. At the age of 17 to 28 days (juvenile), they show tonic-clonic convulsions when exposed to a loud tone.
Male juvenile DBA/2J mice (22-24 days old, body weight between 6.6 and 14.5 grams) were used. Each mouse was placed individually in the exposure chamber, an hemispheric acrylic glass dome (diameter: 50 cm) within a sound-attenuated box. After 60 seconds of habituation, an auditory stimulus of mixed frequency tone (15-20 kHz at 110 dB) was played from a speaker placed on the top center of the dome.
The sound-attenuated box was equipped with lights and a camera system in order to observe and record the behavioral seizure response classified as following: • stage 0, no response • stage 1, wild running • stage 2, clonus • stage 3, tonic extension of the hind limbs.
as §1

Setting [3] is: vehicle 3 h + VPA 100 mg/kg 1 h before stimulus.

The results in this text go back to patent US11213517B2, “Pharmaceutical combination comprising a T-type calcium channel blocker” (IDORSIA PHARMACEUTICALS LTD, priority 2016, dated 2022).

Values joined by “and” are separate entries in the source; they are usually repeats but may differ in a detail not shown here. Equal values may be shown once. Read-outs that look alike come from different tables or passages of the source.

For `CCCC(CCC)C(=O)O` [VPA, 2-propylpentanoic acid], the “plasma and brain concentrations after administration of the compounds alone or in combination” value in data set [1] (COMPOUND 1 and valproic acid, juvenile DBA/2J mice) is listed as “similar”. For the same compound, the concentration at 1 h stood at 1260 ± 399 ng/g in data set [1] (brain, 30 mg/kg, vehicle 3 h + VPA 30 mg/kg 1 h before stimulus, read-out: Brain concentration total); 10100 ± 2040 ng/g in data set [1] (brain, 100 mg/kg, vehicle 3 h + VPA 100 mg/kg 1 h before stimulus, read-out: Brain concentration total); 44200 ± 4090 ng/g in data set [1] (brain, 200 mg/kg, vehicle 3 h + VPA 200 mg/kg 1 h before stimulus, read-out: Brain concentration total); 14600 ± 2910 ng/g in data set [1] (brain, COMPOUND 1 10 mg/kg 3 h + VPA 100 mg/kg 1 h before stimulus, read-out: Brain concentration total); 34700 ± 4440 ng/g in data set [1] (brain, COMPOUND 1 10 mg/kg 3 h + VPA 200 mg/kg 1 h before stimulus, read-out: Brain concentration total); 1010 ± 117 ng/g in data set [1] (brain, COMPOUND 1 30 mg/kg 3 h + VPA 30 mg/kg 1 h before stimulus, read-out: Brain concentration total). Moreover, the concentration at 1 h in data set [1] (brain, COMPOUND 1 30 mg/kg 3 h + VPA 100 mg/kg 1 h before stimulus, read-out: Brain concentration total) came out at 5950 ± 946 ng/g; in data set [1] (brain, COMPOUND 1 30 mg/kg 3 h + VPA 200 mg/kg 1 h before stimulus, read-out: Brain concentration total), 27000 ± 6540 ng/g; in data set [1] (plasma, 30 mg/kg, vehicle 3 h + VPA 30 mg/kg 1 h before stimulus, read-out: Plasma concentration total), 23 ± 3.61 µg/mL; in data set [1] (plasma, 100 mg/kg, vehicle 3 h + VPA 100 mg/kg 1 h before stimulus, read-out: Plasma concentration total) it was 53.7 ± 4.04 µg/mL; in data set [1] (plasma, 200 mg/kg, vehicle 3 h + VPA 200 mg/kg 1 h before stimulus, read-out: Plasma concentration total), 133 ± 10.7 µg/mL; in data set [1] (plasma, COMPOUND 1 10 mg/kg 3 h + VPA 100 mg/kg 1 h before stimulus, read-out: Plasma concentration total), 57.3 ± 3.76 µg/mL. The concentration at 1 h in data set [1] (plasma, COMPOUND 1 10 mg/kg 3 h + VPA 200 mg/kg 1 h before stimulus, read-out: Plasma concentration total) was found to be 123 ± 11.7 µg/mL; in data set [1] (plasma, COMPOUND 1 30 mg/kg 3 h + VPA 30 mg/kg 1 h before stimulus, read-out: Plasma concentration total) it was 19.9 ± 1.65 µg/mL; in data set [1] (plasma, COMPOUND 1 30 mg/kg 3 h + VPA 100 mg/kg 1 h before stimulus, read-out: Plasma concentration total), 63.4 ± 3.21 µg/mL; in data set [1] (plasma, COMPOUND 1 30 mg/kg 3 h + VPA 200 mg/kg 1 h before stimulus, read-out: Plasma concentration total), 110 ± 11.4 µg/mL. For the same compound, the Brain concentration total in data set [1] (setting [3]) is listed as 9278 ± 2535 ng/g; in data set [1] (vehicle 3 h + VPA 200 mg/kg 1 h before stimulus), 24746 ± 3564 ng/g. Besides, the “Seizure stage (maximal seizure stage observed during exposure to auditory stimulus)” value in data set [2] (vehicle 3 h + VPA 30 mg/kg 1 h before stimulus) is 2.9 ± 0.1; in data set [2] (setting [3]), 2.7 ± 0.2 and 2.8 ± 0.2; in data set [2] (vehicle 3 h + VPA 100 mg/kg 1 h before stimulus, listed as valproic acid) it was 3.
